Experimental data reported in paper PMC3118479 (Bioorganic & medicinal chemistry, 2011).

Legend:
[1] = biological target: human D2(long) (Homo sapiens, UniProt P14416); assay: Competitive radioligand binding at D2 dopamine receptor with 125I-IABN; conditions: for D3:D2: Ki for D3 receptors/Ki for D2 receptors; for D4:D2: Ki for D4 receptors/Ki for D2 receptors
[2] = biological target: T1, human D4 (Homo sapiens, UniProt P21917); format: binding; conditions: human D4 expressed in HEK cells, [125I]ABN radioligand; mean ± SEM, at least three experiments
T1 sequence (P21917 1-419): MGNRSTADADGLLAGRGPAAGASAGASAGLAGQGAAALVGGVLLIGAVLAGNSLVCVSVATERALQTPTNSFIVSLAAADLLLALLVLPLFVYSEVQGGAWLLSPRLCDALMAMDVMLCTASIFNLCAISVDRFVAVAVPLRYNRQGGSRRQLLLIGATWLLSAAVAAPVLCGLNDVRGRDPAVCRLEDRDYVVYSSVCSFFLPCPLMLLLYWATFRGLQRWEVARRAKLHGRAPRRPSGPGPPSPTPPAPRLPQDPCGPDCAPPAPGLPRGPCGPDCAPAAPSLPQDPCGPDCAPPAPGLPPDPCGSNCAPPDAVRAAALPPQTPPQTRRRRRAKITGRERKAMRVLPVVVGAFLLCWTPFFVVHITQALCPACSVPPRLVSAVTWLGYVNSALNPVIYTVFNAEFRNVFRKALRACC

[3] = biological target: human D3 (Homo sapiens, UniProt P35462); assay: Competitive radioligand binding at D3 dopamine receptor with 125I-IABN; conditions: relative to aripiprazole
[4] = biological target: human D2 receptors (Homo sapiens, UniProt P14416); assay: Whole cell forskolin-dependent adenylyl cyclase inhibition assay, D2L HEK cells; format: cell-based
human D2 receptors, sequence (P14416 whole entry): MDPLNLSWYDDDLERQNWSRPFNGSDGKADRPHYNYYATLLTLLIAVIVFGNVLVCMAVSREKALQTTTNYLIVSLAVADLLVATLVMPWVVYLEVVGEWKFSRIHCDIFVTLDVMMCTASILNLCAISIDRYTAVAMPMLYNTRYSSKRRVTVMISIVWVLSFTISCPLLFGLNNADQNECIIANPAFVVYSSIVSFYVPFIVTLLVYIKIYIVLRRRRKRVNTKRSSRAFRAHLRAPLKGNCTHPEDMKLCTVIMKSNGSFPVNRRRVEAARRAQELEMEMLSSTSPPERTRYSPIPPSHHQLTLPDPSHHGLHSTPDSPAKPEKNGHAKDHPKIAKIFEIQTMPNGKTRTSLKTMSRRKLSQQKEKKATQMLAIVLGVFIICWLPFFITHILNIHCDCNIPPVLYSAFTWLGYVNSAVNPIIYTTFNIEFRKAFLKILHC

human D2(long), sequence (P14416 whole entry): as above
human D3, sequence (P35462 whole entry): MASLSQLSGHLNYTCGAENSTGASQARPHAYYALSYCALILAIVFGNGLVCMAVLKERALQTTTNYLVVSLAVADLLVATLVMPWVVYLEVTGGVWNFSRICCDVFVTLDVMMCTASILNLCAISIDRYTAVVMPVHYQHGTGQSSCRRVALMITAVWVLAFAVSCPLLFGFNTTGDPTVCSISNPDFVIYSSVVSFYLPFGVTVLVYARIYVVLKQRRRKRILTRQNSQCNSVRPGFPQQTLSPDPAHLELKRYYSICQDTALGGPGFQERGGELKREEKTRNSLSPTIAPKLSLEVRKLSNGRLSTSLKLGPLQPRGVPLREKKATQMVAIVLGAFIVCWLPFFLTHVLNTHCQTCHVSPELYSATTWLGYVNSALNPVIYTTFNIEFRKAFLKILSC

| Structure (SMILES) | D3:D2 [1] | D4:D2 [1] | Ki D4 [2] | increase in affinity at D2 receptors ([1]; relative to aripiprazole) | decrease in affinity at D3 receptors [3] | intrinsic efficacy greater at D2 receptors compared to D3 receptors [4] |
| --- | --- | --- | --- | --- | --- | --- |
| O=C(O)C(=O)O.O=C1CCc2ccc(OCCCCN3CCC(n4c(=O)[nH]c5ccccc54)CC3)cc2N1 [Compound 3, 7-(4-(4-(2-Oxo-2,3-dihydro-1H-benzo[d]imidazol-1-yl)-piperidin-1-yl)butoxy)-3,4-dihydroquinolin-2(1H)-one oxalate] | 6.1 | 7.1 | – | – | – | – |
| O=C(O)C(=O)O.O=C1CCc2ccc(OCCCCN3CCC(n4c(=O)[nH]c5cc(Cl)ccc54)CC3)cc2N1 [Compound 4, 7-(4-(4-(5-Chloro-2-oxo-2,3-dihydro-1H-benzo[d]imidazol-1-yl)piperidin-1-yl)butoxy)-3,4-dihydroquinolin-2(1H)-one oxalate] | 1.9 | 4.4 | – | – | – | – |
| CN1CN(c2ccccc2)C2(CCN(CCCCOc3ccc4c(c3)NC(=O)CC4)CC2)C1=O.O=C(O)C(=O)O [Compound 5, 7-(4-(3Methyl-4-oxo-1-phenyl-1,3,8-triazaspiro[4.5]decan-8-yl)butoxy)-3,4-dihydro-quinolin-2(1H)-one oxalate] | 0.7 | 1.4 | – | – | – | – |
| O=C(O)C(=O)O.O=C1CCc2ccc(OCCCCN3CCN(c4ccccc4OCCF)CC3)cc2N1 [Compound 7, 7-(4-(4-(2-(2-Fluoroethoxy)phenyl)piperazin-1-yl)butoxy)-3,4-dihydroquinolin-2(1H)-one oxalate] | – | – | low affinity | 12 fold | 2 fold | 16–75% |
